In US8124635B2, “Antimicrobial composition useful for preserving wood” (Rohm and Haas Company, priority 2006, dated 2012):
Like-named read-outs stand apart in the source and are kept apart here.

Experiments:
Assay type in all cases: cell-based
[1] = system: Pseudomonas aeruginosa (Ps. aeruginosa—ATCC # 9027); assay: Microtiter plate MIC / synergy test (Kull synergy index), M9GY medium, 30° C.; conditions: for Cb = Component B (OIT), end-point concentration (MIC), alone or in mixture: Component A propiconazole; for MIC: Pseudomonas aeruginosa, read-out: MIC of the component acting alone (end point); for Ca = Component A (propiconazole), end-point concentration (MIC), alone or in mixture: Component B OIT
Excerpt: (§1) One measure of synergism is the industrially accepted method described by Kull, F. C.; Eisman, P. C.; Sylwestrowicz, H. D. and Mayer, R. L., in Applied Microbiology 9:538-541 (1961), using the ratio determined by the formula: Ca/CA+Cb/CB=Synergy Index (“SI”) wherein: • CA=concentration of compound A (first component) in ppm, acting alone, which produced an end point (MIC of Compound A). • Ca=concentration of compound A in ppm, in the mixture, which produced an end point. • CB=concentration of compound B (second component) in ppm, acting alone, which produced an end point (MIC of Compound B). • Cb=concentration of compound B in ppm, in the mixture, which produced an end point.
(§2) When the sum of Ca/CA and Cb/CB is greater than one, antagonism is indicated. […] The lower the SI, the greater the synergy shown by that particular mixture. The minimum inhibitory concentration (MIC) of an antimicrobial compound is the lowest concentration tested under a specific set of conditions that prevents the growth of added microorganisms.
(§3) Synergy tests were conducted using standard microtiter plate assays with media designed for optimal growth of the test microorganism. Minimal salt medium supplemented with 0.2% glucose and 0.1% yeast extract (M9GY medium) was used for bacteria testing; Potato Dextrose Broth (PDB medium) was used for yeast and mold testing. In this method, a wide range of combinations of microbicides was tested by conducting high resolution MIC assays in the presence of various concentrations of biocides. High resolution MICs were determined by adding varying amounts of microbicide to one column of a microtitre plate and doing subsequent ten-fold dilutions using an automated liquid handling system to obtain a series of end points ranging of active ingredient. The synergy of the combinations of the present invention was determined against two bacteria, Pseudomonas aeruginosa (Ps. aeruginosa—ATCC # 9027) and Staphylococcus aureus (S. aureus—ATCC # 6538), a yeast, Candida albicans (C. albicans—ATCC # 10231), and a mold, Aspergillus niger (A. niger—ATCC 16404). The bacteria were used at a concentration of about 1-6×10^6 bacteria per mL and the yeast and mold at 1−5×10^5 fungi per mL. These microorganisms are representative of natural contaminants in many consumer and industrial applications. […] (yeast and mold) or 30° C. (bacteria).

[2] = system: Candida albicans (C. albicans—ATCC # 10231); assay: Microtiter plate MIC / synergy test (Kull synergy index), PDB medium, 25° C.; set-up: Ca = Component A (tebuconazole), end-point concentration (MIC), alone or in mixture / Ca = Component A (propiconazole), end-point concentration (MIC), alone or in mixture: unit: ppm; conditions: for Cb = Component B (OIT), end-point concentration (MIC), alone or in mixture: Component A propiconazole; for MIC of the component acting alone (end point) / MIC: C. albicans; for MIC: Candida albicans, read-out: MIC of the component acting alone (end point)
Excerpt: as §1, §2, §3

[3] = system: Aspergillus niger (A. niger—ATCC 16404); assay: as above; conditions: for MIC: Aspergillus niger, read-out: MIC of the component acting alone (end point)
Excerpt: as §1, §2, §3

[4] = system: Staphylococcus aureus (S. aureus—ATCC # 6538); assay: Microtiter plate MIC / synergy test (Kull synergy index), M9GY medium, 30° C.; set-up: Ca = Component A (tebuconazole), end-point concentration (MIC), alone or in mixture / Ca = Component A (propiconazole), end-point concentration (MIC), alone or in mixture: unit: ppm; conditions: for Cb = Component B (OIT), end-point concentration (MIC), alone or in mixture: Component A propiconazole; for MIC: Staphylococcus aureus, read-out: MIC of the component acting alone (end point)
Excerpt: as §1, §2, §3

[5] = system: Trametes vesicolor (T. vesicolor—ATCC # 4262); assay: Application test: treated paper disc on Malt agar plate, fungal growth observed visually after 4 weeks; conditions: T. vesicolor ATCC # 42462, contact time 4 weeks
Description: (§4) An application test was performed to evaluate synergy of DCOIT/thifluzamide alone and in combination against Gloeophyllum trabeum (G. trabeum—ATCC # 11593) and Trametes vesicolor (T. vesicolor—ATCC # 4262). A paper disc was dipped in the treatment solution, air dried and placed on Malt agar plate streaked with the test organisms. The surface of the disc was also swabbed with the test organisms. The agar plates were incubated at 25° C. for 4 weeks. Fungal growth was then observed visually.

[6] = system: Gloeophyllum trabeum (G. trabeum—ATCC # 11593); assay: as above; conditions: G. trabeum ATCC # 11539, contact time 4 weeks
Description: as §4

[7] = Ps. Aeruginosa ATCC # 9027, contact time 24 hour
[8] = Ps. Aeruginosa ATCC # 9027, contact time 48 hour
[9] = Ps. aeruginosa, contact time 24 hour
[10] = ATCC9027, 24 h, Ps. aeruginosa, contact time 24 hour
[11] = ATCC9027, 48 h, Ps. aeruginosa, contact time 48 hour
[12] = ATCC10231, 24 h, contact time 24 hour
[13] = ATCC16404, 72 h, A. niger, contact time 3 days
[14] = ATCC16404, 168 h, A. niger, contact time 7 days
[15] = S. aureus, contact time 24 hour
[16] = S. aureus, contact time 48 hour
[17] = ATCC6538, 24 h, S. aureus, contact time 24 hour
[18] = ATCC6538, 48 h, S. aureus, contact time 48 hour
[19] = C. albicans ATCC # 10231, contact time 24 hour, Component B CMIT/MIT
[20] = C. albicans ATCC # 10231, contact time 24 hour, Component B copper 8-hydroxyquinoline
[21] = C. albicans ATCC # 10231, contact time 48 hour, Component B copper 8-hydroxyquinoline
[22] = A. niger ATCC # 16404, contact time 3 days, Component B copper 8-hydroxyquinoline
[23] = A. niger ATCC # 16404, contact time 7 days, Component B copper 8-hydroxyquinoline
[24] = S. aureus, contact time 24 hour, Component B CMIT/MIT
[25] = S. aureus, contact time 24 hour, Component B copper 8-hydroxyquinoline
[26] = S. aureus, contact time 48 hour, Component B copper 8-hydroxyquinoline

CCCCCCCCn1sccc1=O [OIT, 2-n-octyl-4-isothiazolin-3-one]
Cb = Component B (OIT), end-point concentration (MIC), alone or in mixture [1, 7]: 390
Cb = Component B (OIT), end-point concentration (MIC), alone or in mixture [1, 8]: 525
MIC of the component acting alone (end point) [1, 9]: 390 ppm
MIC [1, 10]: 390 µg/mL
MIC [1, 11]: 415 µg/mL
Cb = Component B (OIT), end-point concentration (MIC), alone or in mixture ([2]; C. albicans ATCC # 10231, contact time 24 hour): 1.3
Cb = Component B (OIT), end-point concentration (MIC), alone or in mixture ([2]; C. albicans ATCC # 10231, contact time 48 hour): 1.3
MIC of the component acting alone (end point) ([2]; contact time 24 hour): 0.9 ppm
MIC [2, 12]: 0.6 µg/mL
MIC ([2]; ATCC10231, 48 h, contact time 48 hour): 0.9 µg/mL
MIC [3, 13]: 3.3 µg/mL
MIC [3, 14]: 3.3 µg/mL
Cb = Component B (OIT), end-point concentration (MIC), alone or in mixture [4, 15]: 63
Cb = Component B (OIT), end-point concentration (MIC), alone or in mixture [4, 16]: 78
MIC [4, 17]: 63 µg/mL
MIC [4, 18]: 78 µg/mL

Cn1sccc1=O [MI, 2-methyl-4-isothiazolin-3-one]
MIC ([1]; ATCC9027, 24 h): 20 µg/mL
MIC ([1]; ATCC9027, 48 h): 20 µg/mL
MIC ([3]; ATCC16404, 72 h): 450 µg/mL
MIC ([3]; ATCC16404, 168 h): 450 µg/mL
MIC ([4]; ATCC6538, 24 h): 30 µg/mL
MIC ([4]; ATCC6538, 48 h): 40 µg/mL

CCCCCCCCn1sc(Cl)c(Cl)c1=O [DCOIT, 4,5-dichloro-2-n-octyl-4-isothiazolin-3-one]
MIC [1, 10]: 3.2 µg/mL
MIC [1, 11]: 5.3 µg/mL
Ca = Component A (DCOIT), end-point concentration, alone or in mixture ([5]; Component B thifluzamide): 320
Ca = Component A (DCOIT), end-point concentration, alone or in mixture ([6]; Component B thifluzamide): 320
MIC [4, 17]: 0.1 µg/mL
MIC [4, 18]: 0.4 µg/mL

Cc1nc(C(F)(F)F)c(C(=O)Nc2c(Br)cc(OC(F)(F)F)cc2Br)s1 [thifluzamide]
Cb = Component B (thifluzamide), end-point concentration, alone or in mixture ([5]; Component A DCOIT): 320
Cb = Component B (thifluzamide), end-point concentration, alone or in mixture ([6]; Component A DCOIT): >960

CCCC1COC(Cn2cncn2)(c2ccc(Cl)cc2Cl)O1 (stereo not shown) [propiconazole]
Ca = Component A (propiconazole), end-point concentration (MIC), alone or in mixture [1, 7]: 800
Ca = Component A (propiconazole), end-point concentration (MIC), alone or in mixture [1, 8]: 800
Ca = Component A (propiconazole), end-point concentration (MIC), alone or in mixture [2, 19]: 50
Ca = Component A (propiconazole), end-point concentration (MIC), alone or in mixture ([2]; C. albicans ATCC # 10231, contact time 24 hour, Component B OIT): 50
Ca = Component A (propiconazole), end-point concentration (MIC), alone or in mixture [2, 20]: 50
Ca = Component A (propiconazole), end-point concentration (MIC), alone or in mixture ([2]; C. albicans ATCC # 10231, contact time 48 hour, Component B OIT): 50
Ca = Component A (propiconazole), end-point concentration (MIC), alone or in mixture [2, 21]: 50
Ca = Component A (propiconazole), end-point concentration (MIC), alone or in mixture ([3]; A. niger ATCC # 16404, contact time 3 days, Component B CMIT/MIT): 20
Ca = Component A (propiconazole), end-point concentration (MIC), alone or in mixture [3, 22]: 20
Ca = Component A (propiconazole), end-point concentration (MIC), alone or in mixture [3, 23]: 25
MIC [3, 13]: 20 µg/mL
MIC [3, 14]: 20 µg/mL
Ca = Component A (propiconazole), end-point concentration (MIC), alone or in mixture [4, 24]: 100
Ca = Component A (propiconazole), end-point concentration (MIC), alone or in mixture ([4]; S. aureus, contact time 24 hour, Component B OIT): 100
Ca = Component A (propiconazole), end-point concentration (MIC), alone or in mixture [4, 25]: 100
Ca = Component A (propiconazole), end-point concentration (MIC), alone or in mixture ([4]; S. aureus, contact time 48 hour, Component B OIT): 100
Ca = Component A (propiconazole), end-point concentration (MIC), alone or in mixture [4, 26]: 100
MIC [4, 17]: 100 µg/mL

CC(C)(C)C(O)(CCc1ccc(Cl)cc1)Cn1cncn1 (stereo not shown) [tebuconazole]
Ca = Component A (tebuconazole), end-point concentration (MIC), alone or in mixture ([1]; Ps. Aeruginosa ATCC # 9027, contact time 24 hour, Component B copper 8-hydroxyquinoline): 900
MIC [1, 10]: 900 µg/mL
MIC [1, 11]: 900 µg/mL
Ca = Component A (tebuconazole), end-point concentration (MIC), alone or in mixture [2, 19]: 50
Ca = Component A (tebuconazole), end-point concentration (MIC), alone or in mixture [2, 20]: 60
Ca = Component A (tebuconazole), end-point concentration (MIC), alone or in mixture ([2]; C. albicans ATCC # 10231, contact time 48 hour, Component B CMIT/MIT): 50
Ca = Component A (tebuconazole), end-point concentration (MIC), alone or in mixture [2, 21]: 60
MIC [2, 12]: 50 µg/mL
Ca = Component A (tebuconazole), end-point concentration (MIC), alone or in mixture [3, 22]: 8
Ca = Component A (tebuconazole), end-point concentration (MIC), alone or in mixture [3, 23]: 8
MIC [3, 13]: 8 µg/mL
MIC [3, 14]: 8 µg/mL
Ca = Component A (tebuconazole), end-point concentration (MIC), alone or in mixture [4, 24]: 50
Ca = Component A (tebuconazole), end-point concentration (MIC), alone or in mixture [4, 25]: 50
Ca = Component A (tebuconazole), end-point concentration (MIC), alone or in mixture ([4]; S. aureus, contact time 48 hour, Component B CMIT/MIT): 50
Ca = Component A (tebuconazole), end-point concentration (MIC), alone or in mixture [4, 26]: 50
MIC [4, 17]: 50 µg/mL
MIC [4, 18]: 50 µg/mL

CCCCNC(=O)OCC#CI [IPBC, 3-iodo-2-propynyl-butylcarbamate]
MIC of the component acting alone (end point) [1, 9]: 263 ppm
MIC of the component acting alone (end point) ([1]; Ps. aeruginosa, contact time 48 hour): 263 ppm
MIC of the component acting alone (end point) ([2]; contact time 24 hour): 4.2 ppm
MIC of the component acting alone (end point) ([2]; contact time 48 hour): 4.2 ppm
MIC of the component acting alone (end point) ([3]; A. niger, contact time 3 days): 0.4 ppm
MIC of the component acting alone (end point) [4, 15]: 34 ppm
MIC of the component acting alone (end point) [4, 16]: 42 ppm
